# Patent US20100003250A1, “(2-ARYL-7H-PYRROLO[2,3-D]PYRIMIDIN-4-YL)MORPHOLINE COMPOUNDS, THEIR USE AS MTOR KINASE AND PI3 KINASE INHIBITORS, AND THEIR SYNTHESES” (Wyeth, priority 2008, published 2010)
# Experiments:
# PI3Kγ = PI3Kγ (Homo sapiens, UniProt P48736); assay: PI3K-gamma fluorescence polarization assay; assay type: biochemical; settings: 20 μM PIP2, 25 μM ATP; read-out: PI3Kγ Median IC50
# Outline: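 Enzyme preincubated with compound in 20 mM HEPES pH 7.5, 2 mM MgCl2, 0.05% CHAPS, 0.01% βME; reaction started with substrate giving 20 μM diC8 PIP2 and 25 μM ATP final, run 30-60 min at room temperature. Stopped with TAMRA-labelled PIP3 detector probe plus GST-GRP; PIP3 formation read by fluorescence polarization after 90-110 min.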
# mTOR Kinase (FLAG-TOR) = molecular target: T1, mTOR Kinase (FLAG-TOR) (Homo sapiens, UniProt P42345); assay: mTOR kinase assay, purified enzyme, DELFIA format; assay type: biochemical; settings: 100 μM ATP, 1.25 μM His6-S6K; read-out: mTOR Kinase Median IC50
# T1 construct: FLAG
# PI3Kα = PI3Kα (Homo sapiens, UniProt P42336); assay: PI3K-alpha fluorescence polarization assay; assay type: biochemical; settings: 20 μM PIP2, 25 μM ATP; read-out: PI3Kα Median IC50
# Chain of PI3Kα (P42336 whole entry, species assumed): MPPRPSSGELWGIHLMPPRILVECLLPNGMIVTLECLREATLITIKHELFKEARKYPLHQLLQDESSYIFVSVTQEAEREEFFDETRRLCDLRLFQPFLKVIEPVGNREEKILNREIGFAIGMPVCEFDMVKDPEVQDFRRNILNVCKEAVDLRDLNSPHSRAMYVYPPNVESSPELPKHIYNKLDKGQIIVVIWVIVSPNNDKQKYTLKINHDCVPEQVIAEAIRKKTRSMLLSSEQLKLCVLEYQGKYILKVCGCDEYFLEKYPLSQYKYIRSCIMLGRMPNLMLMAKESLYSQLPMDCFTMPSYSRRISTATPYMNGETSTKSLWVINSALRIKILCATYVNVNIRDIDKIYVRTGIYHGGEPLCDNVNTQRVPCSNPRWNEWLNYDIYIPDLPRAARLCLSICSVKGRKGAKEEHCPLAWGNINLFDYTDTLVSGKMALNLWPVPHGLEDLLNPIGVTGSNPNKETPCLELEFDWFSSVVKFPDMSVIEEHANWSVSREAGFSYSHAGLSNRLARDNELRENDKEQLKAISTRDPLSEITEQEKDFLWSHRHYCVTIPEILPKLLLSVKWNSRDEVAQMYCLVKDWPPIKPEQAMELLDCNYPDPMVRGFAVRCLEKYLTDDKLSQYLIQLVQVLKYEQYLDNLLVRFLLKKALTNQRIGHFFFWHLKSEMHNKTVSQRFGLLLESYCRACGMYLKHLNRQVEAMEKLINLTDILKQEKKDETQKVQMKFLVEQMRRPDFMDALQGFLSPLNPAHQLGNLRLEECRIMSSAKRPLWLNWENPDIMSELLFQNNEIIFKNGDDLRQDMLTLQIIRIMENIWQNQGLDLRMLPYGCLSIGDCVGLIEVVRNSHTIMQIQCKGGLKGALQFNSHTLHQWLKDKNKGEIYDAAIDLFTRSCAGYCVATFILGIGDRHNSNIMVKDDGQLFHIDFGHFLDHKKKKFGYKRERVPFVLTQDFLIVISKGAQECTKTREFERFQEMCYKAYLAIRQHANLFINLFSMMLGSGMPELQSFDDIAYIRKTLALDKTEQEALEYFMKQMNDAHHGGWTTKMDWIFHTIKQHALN
# Chain of PI3Kα (P27986 whole entry partner, species assumed): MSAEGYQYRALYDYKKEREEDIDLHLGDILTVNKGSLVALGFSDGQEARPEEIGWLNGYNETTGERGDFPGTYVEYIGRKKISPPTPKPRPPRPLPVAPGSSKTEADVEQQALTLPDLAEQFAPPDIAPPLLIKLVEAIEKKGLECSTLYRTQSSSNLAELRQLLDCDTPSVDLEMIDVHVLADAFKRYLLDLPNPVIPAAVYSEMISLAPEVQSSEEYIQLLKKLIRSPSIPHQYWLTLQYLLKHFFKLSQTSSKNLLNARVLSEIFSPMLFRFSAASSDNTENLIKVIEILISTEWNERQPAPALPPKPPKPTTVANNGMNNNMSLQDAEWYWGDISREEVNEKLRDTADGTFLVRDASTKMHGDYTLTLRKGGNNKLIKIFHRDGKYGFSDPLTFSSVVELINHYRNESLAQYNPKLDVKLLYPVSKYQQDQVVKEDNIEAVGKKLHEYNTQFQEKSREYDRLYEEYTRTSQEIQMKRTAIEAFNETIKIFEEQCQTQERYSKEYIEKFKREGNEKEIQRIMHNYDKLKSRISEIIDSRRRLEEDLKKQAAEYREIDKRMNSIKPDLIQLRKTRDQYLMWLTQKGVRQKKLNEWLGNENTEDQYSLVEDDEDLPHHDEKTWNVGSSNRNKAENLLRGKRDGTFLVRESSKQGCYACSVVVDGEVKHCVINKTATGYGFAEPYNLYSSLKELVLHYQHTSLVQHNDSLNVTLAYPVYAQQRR
# [1] = tested on: human tumor xenograft models; settings: prostrate (PC-3) and glioblastoma (U-87); cited from earlier work
# Chain of PI3Kγ (P48736 whole entry, species assumed): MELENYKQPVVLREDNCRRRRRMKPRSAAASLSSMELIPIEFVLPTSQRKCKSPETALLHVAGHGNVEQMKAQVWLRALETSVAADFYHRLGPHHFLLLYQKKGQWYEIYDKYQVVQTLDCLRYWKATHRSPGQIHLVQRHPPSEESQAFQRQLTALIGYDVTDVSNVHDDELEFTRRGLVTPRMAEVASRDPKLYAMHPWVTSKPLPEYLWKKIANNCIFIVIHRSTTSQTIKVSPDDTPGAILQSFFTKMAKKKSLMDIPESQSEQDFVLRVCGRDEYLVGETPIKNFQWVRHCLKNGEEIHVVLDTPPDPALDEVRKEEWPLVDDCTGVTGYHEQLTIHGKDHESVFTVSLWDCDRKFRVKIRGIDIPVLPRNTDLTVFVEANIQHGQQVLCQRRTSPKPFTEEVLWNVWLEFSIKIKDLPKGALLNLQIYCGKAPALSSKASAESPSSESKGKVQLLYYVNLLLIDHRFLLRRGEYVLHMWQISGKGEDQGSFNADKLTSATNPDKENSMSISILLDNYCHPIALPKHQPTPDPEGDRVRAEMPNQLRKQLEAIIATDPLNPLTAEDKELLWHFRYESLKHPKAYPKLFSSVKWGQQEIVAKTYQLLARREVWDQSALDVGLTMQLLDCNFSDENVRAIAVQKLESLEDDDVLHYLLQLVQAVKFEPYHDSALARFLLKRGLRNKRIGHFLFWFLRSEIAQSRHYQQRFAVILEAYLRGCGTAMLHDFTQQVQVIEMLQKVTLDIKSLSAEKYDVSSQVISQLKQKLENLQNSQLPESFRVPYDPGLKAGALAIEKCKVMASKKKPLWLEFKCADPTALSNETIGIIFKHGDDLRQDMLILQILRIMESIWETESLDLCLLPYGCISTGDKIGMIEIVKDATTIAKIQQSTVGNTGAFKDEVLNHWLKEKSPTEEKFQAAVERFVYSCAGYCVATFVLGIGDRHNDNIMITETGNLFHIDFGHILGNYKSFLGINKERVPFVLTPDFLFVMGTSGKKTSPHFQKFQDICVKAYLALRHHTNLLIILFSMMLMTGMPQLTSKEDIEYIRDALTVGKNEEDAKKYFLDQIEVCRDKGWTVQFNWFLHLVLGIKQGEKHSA
IC50 (PI3Kγ) [nM],IC50 (mTOR Kinase (FLAG-TOR)) [nM],IC50 (PI3Kα) [nM],SMILES,activity in human tumor xenograft models [1]
32,1.2,1.9,"CCn1ccc2c(N3CCOCC3)nc(-c3ccc(NC(=O)Nc4ccc(C(=O)NCCCN(C)C)cc4)cc3)nc21 [Compound 74, N-[3-(dimethylamino)propyl]-4-({[4-(7-ethyl-4-morpholin-4-yl-7H-pyrrolo[2,3-d]pyrimidin-2-yl)phenyl]carbamoyl}amino)benzamide]",–
36,5.65,8,"CCn1ccc2c(N3CCOCC3)nc(-c3ccc(NC(=O)Nc4ccc(C(=O)N5CCN(c6ccccn6)CC5)cc4)cc3)nc21 [Compound 75, 1-[4-(7-ethyl-4-morpholin-4-yl-7H-pyrrolo[2,3-d]pyrimidin-2-yl)phenyl]-3-{4-[(4-pyridin-2-ylpiperazin-1-yl)carbonyl]phenyl}urea]",–
38,0.72,2,"CCn1ccc2c(N3CCOCC3)nc(-c3ccc(NC(=O)Nc4ccc(C(=O)NCCN5CCCC5)cc4)cc3)nc21 [Compound 76, 4-({[4-(7-ethyl-4-morpholin-4-yl-7H-pyrrolo[2,3-d]pyrimidin-2-yl)phenyl]carbamoyl}amino)-N-(2-pyrrolidin-1-ylethyl)benzamide]",–
64,1.75,5.5,"CCn1ccc2c(N3CCOCC3)nc(-c3ccc(NC(=O)Nc4ccc(C(=O)N5CCC(N6CCOCC6)CC5)cc4)cc3)nc21 [Compound 77, 1-[4-(7-ethyl-4-morpholin-4-yl-7H-pyrrolo[2,3-d]pyrimidin-2-yl)phenyl]-3-{4-[(4-morpholin-4-ylpiperidin-1-yl)carbonyl]phenyl}urea]",–
118,1.15,9.5,"CCn1ccc2c(N3CCOCC3)nc(-c3ccc(NC(=O)Nc4ccc(C(=O)NCCOC)cc4)cc3)nc21 [Compound 78, 4-({[4-(7-ethyl-4-morpholin-4-yl-7H-pyrrolo[2,3-d]pyrimidin-2-yl)phenyl]carbamoyl}amino)-N-(2-methoxyethyl)benzamide]",–
193,1.15,28,"CC(C)n1ccc2c(N3CCOCC3)nc(-c3ccc(NC(=O)Nc4ccncc4)cc3)nc21 [Compound 79, 1-[4-(7-isopropyl-4-morpholin-4-yl-7H-pyrrolo[2,3-d]pyrimidin-2-yl)phenyl]-3-pyridin-4-ylurea]",–
135,2.8,47,"CC(C)n1ccc2c(N3CCOCC3)nc(-c3ccc(NC(=O)Nc4ccc(N5CCN(C)CC5)cc4)cc3)nc21 [Compound 80, 1-[4-(7-isopropyl-4-morpholin-4-yl-7H-pyrrolo[2,3-d]pyrimidin-2-yl)phenyl]-3-[4-(4-methylpiperazin-1-yl)phenyl]urea]",–
219,2.95,34,"CC(C)n1ccc2c(N3CCOCC3)nc(-c3ccc(NC(=O)Nc4ccc(OCCN(C)C)cc4)cc3)nc21 [Compound 81, 1-{4-[2-(dimethylamino)ethoxy]phenyl}-3-[4-(7-isopropyl-4-morpholin-4-yl-7H-pyrrolo[2,3-d]pyrimidin-2-yl)phenyl]urea]",–
38,1.5,3.3,"CC(C)n1ccc2c(N3CCOCC3)nc(-c3ccc(NC(=O)Nc4ccc(C(=O)N5CCN(C)CC5)cc4)cc3)nc21 [Compound 82, 1-[4-(7-isopropyl-4-morpholin-4-yl-7H-pyrrolo[2,3-d]pyrimidin-2-yl)phenyl]-3-{4-[(4-methylpiperazin-1-yl)carbonyl]phenyl}urea]",–
13,0.64,< 2.3,"CC(C)n1ccc2c(N3CCOCC3)nc(-c3ccc(NC(=O)Nc4ccc(C(=O)N5CCNCC5)cc4)cc3)nc21 [Compound 83, 1-[4-(7-isopropyl-4-morpholin-4-yl-7H-pyrrolo[2,3-d]pyrimidin-2-yl)phenyl]-3-[4-(piperazin-1-ylcarbonyl)phenyl]urea]",–
38,0.8,4,"CC(C)n1ccc2c(N3CCOCC3)nc(-c3ccc(NC(=O)Nc4ccc(C(=O)N5CCC(N(C)C)CC5)cc4)cc3)nc21 [Compound 84, 1-(4-{[4-(dimethylamino)piperidin-1-yl]carbonyl}phenyl)-3-[4-(7-isopropyl-4-morpholin-4-yl-7H-pyrrolo[2,3-d]pyrimidin-2-yl)phenyl]urea]",–
34,0.61,< 1.8,"CC(C)n1ccc2c(N3CCOCC3)nc(-c3ccc(NC(=O)Nc4ccc(C(=O)N(C)CCN(C)C)cc4)cc3)nc21 [Compound 85, N-[2-(dimethylamino)ethyl]-4-({[4-(7-isopropyl-4-morpholin-4-yl-7H-pyrrolo[2,3-d]pyrimidin-2-yl)phenyl]carbamoyl}amino)-N-methylbenzamide]",–
50,0.38,1.7,"CC(C)n1ccc2c(N3CCOCC3)nc(-c3ccc(NC(=O)Nc4ccc(C(=O)NCCN(C)C)cc4)cc3)nc21 [Compound 86, N-[2-(dimethylamino)ethyl]-4-({[4-(7-isopropyl-4-morpholin-4-yl-7H-pyrrolo[2,3-d]pyrimidin-2-yl)phenyl]carbamoyl}amino)benzamide]",–
88,0.55,5,"CC(C)n1ccc2c(N3CCOCC3)nc(-c3ccc(NC(=O)Nc4ccc(C(=O)NCCN5CCCC5)cc4)cc3)nc21 [Compound 87, 4-({[4-(7-isopropyl-4-morpholin-4-yl-7H-pyrrolo[2,3-d]pyrimidin-2-yl)phenyl]carbamoyl}amino)-N-(2-pyrrolidin-1-ylethyl)benzamide]",–
38,0.59,4.3,"CC(C)n1ccc2c(N3CCOCC3)nc(-c3ccc(NC(=O)Nc4ccc(C(=O)N5CCC(N6CCCC6)CC5)cc4)cc3)nc21 [Compound 88, 1-[4-(7-isopropyl-4-morpholin-4-yl-7H-pyrrolo[2,3-d]pyrimidin-2-yl)phenyl]-3-{4-[(4-pyrrolidin-1-ylpiperidin-1-yl)carbonyl]phenyl}urea]",–
511,4.8,116,"COC(=O)c1ccc(NC(=O)Nc2ccc(-c3nc(N4CCOCC4)c4ccn(C(C)C)c4n3)cc2)cc1 [Compound 89, methyl 4-({[4-(7-isopropyl-4-morpholin-4-yl-7H-pyrrolo[2,3-d]pyrimidin-2-yl)phenyl]carbamoyl}amino)benzoate]",–
151,0.81,25.7,"CC(C)n1ccc2c(N3CCOCC3)nc(-c3ccc(NC(=O)Nc4ccc(C(=O)O)cc4)cc3)nc21 [Compound 90, 4-({[4-(7-isopropyl-4-morpholin-4-yl-7H-pyrrolo[2,3-d]pyrimidin-2-yl)phenyl]carbamoyl}amino)benzoic acid]",–
50,0.73,4,"CCn1ccc2c(N3CCOCC3)nc(-c3ccc(NC(=O)Nc4ccc(C(=O)N5CCN(C(C)C)CC5)cc4)cc3)nc21 [Compound 91, 1-[4-(7-ethyl-4-morpholin-4-yl-7H-pyrrolo[2,3-d]pyrimidin-2-yl)phenyl]-3-(4-{[4-(1-methylethyl)piperazin-1-yl]carbonyl}phenyl)urea]",–
72,0.67,8.5,"CCN1CCN(C(=O)c2ccc(NC(=O)Nc3ccc(-c4nc(N5CCOCC5)c5ccn(C(C)C)c5n4)cc3)cc2)CC1 [Compound 92, 1-{4-[(4-ethylpiperazin-1-yl)carbonyl]phenyl}-3-{4-[7-(1-methylethyl)-4-morpholin-4-yl-7H-pyrrolo[2,3-d]pyrimidin-2-yl]phenyl}urea]",–
82,0.94,12,"CC(C)N1CCN(C(=O)c2ccc(NC(=O)Nc3ccc(-c4nc(N5CCOCC5)c5ccn(C(C)C)c5n4)cc3)cc2)CC1 [Compound 93, 1-{4-[7-(1-methylethyl)-4-morpholin-4-yl-7H-pyrrolo[2,3-d]pyrimidin-2-yl]phenyl}-3-(4-{[4-(1-methylethyl)piperazin-1-yl]carbonyl}phenyl)urea]",–
> 10000,1350,11000,"CC(C)(C)OC(=O)N1CCC(n2ccc3c(N4CCOCC4)nc(-c4ccc(NC(=O)Nc5cccnc5)cc4)nc32)CC1 [Compound 94, tert-butyl 4-(4-morpholin-4-yl-2-{4-[(pyridin-3-ylcarbamoyl)amino]phenyl}-7H-pyrrolo[2,3-d]pyrimidin-7-yl)piperidine-1-carboxylate]",–
1540,4.9,140,"CCn1ccc2c(N3CCOCC3)nc(-c3ccc(NC(=O)NC)cc3)nc21 [Compound 96, 1-[4-(7-ethyl-4-morpholin-4-yl-7H-pyrrolo[2,3-d]pyrimidin-2-yl)phenyl]-3-methylurea]",–
12000,47,1890,"CCn1cc(CN(C)C)c2c(N3CCOCC3)nc(-c3ccc(NC(=O)NC)cc3)nc21 [Compound 97, 1-(4-{5-[(dimethylamino)methyl]-7-ethyl-4-morpholin-4-yl-7H-pyrrolo[2,3-d]pyrimidin-2-yl}phenyl)-3-methylurea]",–
–,–,–,"Cn1c(=O)n(-c2ccc(C(C)(C)C#N)cc2)c2c3cc(-c4cnc5ccccc5c4)ccc3ncc21 [NVP-BEZ-235, 2-methyl-2-(4-(3-methyl-2-oxo-8-(quinolin-3-yl)-2,3-dihydro-1H-imidazo[4,5-c]quinolin-1-yl)phenyl)propanenitrile]",demonstrated activity
